One block for each molecule: values may come before it. Starred links: 1 amine or outer side, 2 acyl side, 3 side chain; linkers in the order of their positions; H or OH if unused. Positions of bridges follow the written chain, without caps; N, C: chain ends. Non-standard residues stand in square brackets, D forms with d. Residues, ends and D or L forms follow the SMILES beside them. αMeNle(4R-Me,6-ylidene) = C[C@H](CC=[*:3])C[C@](C)(N[*:1])C(=O)[*:2]; X3 = C[C@@H](CC=[*:3])C[C@](C)(N[*:1])C(=O)[*:2]; S5 = C=CCCC[C@](C)(N)C(=O)O
How the values were obtained:
Estrogen receptor [1] = target: T1, Estrogen receptor (Homo sapiens, UniProt P03372); experiment: Binding affinity to recombinant human ERalpha LBD (301 to 553 residues) expressed in Escherichia coli BL21(DE3) by surface plasmon resonance method
T1 sequence (P03372 whole entry): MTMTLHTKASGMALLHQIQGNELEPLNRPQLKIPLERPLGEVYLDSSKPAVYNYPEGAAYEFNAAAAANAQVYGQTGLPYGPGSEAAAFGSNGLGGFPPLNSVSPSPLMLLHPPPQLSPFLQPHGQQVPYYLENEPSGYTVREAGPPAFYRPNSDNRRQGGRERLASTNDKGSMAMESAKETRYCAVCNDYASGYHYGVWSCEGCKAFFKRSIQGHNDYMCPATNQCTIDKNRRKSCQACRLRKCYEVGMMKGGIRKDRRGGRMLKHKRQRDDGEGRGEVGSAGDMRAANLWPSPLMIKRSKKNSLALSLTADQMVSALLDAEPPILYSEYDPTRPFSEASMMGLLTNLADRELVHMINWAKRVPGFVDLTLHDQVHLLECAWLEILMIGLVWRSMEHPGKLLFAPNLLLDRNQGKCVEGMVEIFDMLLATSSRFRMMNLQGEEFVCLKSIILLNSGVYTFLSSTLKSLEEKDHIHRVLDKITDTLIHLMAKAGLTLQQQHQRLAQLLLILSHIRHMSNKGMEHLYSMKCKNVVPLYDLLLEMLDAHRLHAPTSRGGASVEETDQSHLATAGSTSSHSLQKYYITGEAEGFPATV

Estrogen receptor beta = Estrogen receptor beta (Homo sapiens, UniProt Q92731, C334S/C369S/C481S); experiment: Binding affinity to recombinant human ERbeta LBD (259 to 498 residues) C334S/C369S/C481S triple mutant expressed in Escherichia coli BL21(DE3) by surface plasmon resonance method
Estrogen receptor beta, sequence (Q92731 whole entry C334S/C369S/C481S, the tested form may be a part): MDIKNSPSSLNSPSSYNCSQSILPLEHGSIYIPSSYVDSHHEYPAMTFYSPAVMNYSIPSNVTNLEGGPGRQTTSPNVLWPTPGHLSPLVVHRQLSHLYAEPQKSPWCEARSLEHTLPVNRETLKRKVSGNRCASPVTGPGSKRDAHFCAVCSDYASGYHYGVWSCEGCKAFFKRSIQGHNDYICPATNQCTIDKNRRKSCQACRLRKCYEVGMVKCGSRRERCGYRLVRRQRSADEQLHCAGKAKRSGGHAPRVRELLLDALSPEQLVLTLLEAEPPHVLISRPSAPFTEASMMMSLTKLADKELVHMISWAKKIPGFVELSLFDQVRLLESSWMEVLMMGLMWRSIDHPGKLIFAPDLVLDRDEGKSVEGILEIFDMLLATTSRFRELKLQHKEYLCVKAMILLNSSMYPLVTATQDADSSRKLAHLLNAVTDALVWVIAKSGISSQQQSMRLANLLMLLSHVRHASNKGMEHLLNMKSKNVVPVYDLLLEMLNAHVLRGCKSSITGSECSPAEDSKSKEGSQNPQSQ

Estrogen receptor [2] = target: T1, Estrogen receptor; experiment: Displacement of 5-iodoacetamidofluorescein-labelled SRC3 from C417-biotin labelled ERalpha (unknown origin) (304 to 554 residues) after 45 mins by TR-FRET assay

- Kd (Estrogen receptor [1]): 4 µM
- Kd (Estrogen receptor beta): 2.8 µM
Structure (SMILES): CC[C@H](C)[C@H](NC(=O)[C@H](CCCCN)NC(=O)[C@H](Cc1cnc[nH]1)NC(C)=O)C(=O)N[C@@H](CC(C)C)C(=O)N[C@@H](Cc1cnc[nH]1)C(=O)N[C@@H](CCC(N)=O)C(=O)N[C@@H](CC(C)C)C(=O)N[C@@H](CC(C)C)C(=O)N[C@@H](CCC(N)=O)C(=O)N[C@@]1(C)CCC/C=C\CCC[C@@](C)(C(=O)N[C@H](C(N)=O)C(C)C)NC(=O)[C@H](CO)NC(=O)[C@H](CO)NC(=O)[C@H](CO)NC1=O (Ac-HKILHQLLQ[S5]SSS[S5]V-NH2; staple (Z) 10-14)

- Kd (Estrogen receptor [1]): 8 µM
- Kd (Estrogen receptor beta): 8.3 µM
Structure (SMILES): CC[C@H](C)[C@H](NC(=O)[C@H](CCCCN)NC(=O)[C@]1(C)CCC/C=C\CCC[C@](C)(NC(C)=O)C(=O)N[C@@H](CCCCN)C(=O)N[C@@H](CCC(=O)O)C(=O)N[C@@H](CCCCN)C(=O)N1)C(=O)N[C@@H](CC(C)C)C(=O)N[C@@H](Cc1cnc[nH]1)C(=O)N[C@@H](CCC(N)=O)C(=O)N[C@@H](CC(C)C)C(=O)N[C@@H](CC(C)C)C(=O)N[C@@H](CCC(N)=O)C(=O)N[C@@H](CC(=O)O)C(=O)N[C@@H](CO)C(N)=O (Ac-[S5]KEK[S5]KILHQLLQDS-NH2; staple (Z) 1-5)

The remaining lines, values behind:

Structure (SMILES): CC[C@H](C)[C@H](NC(=O)[C@H](CCCCN)NC(=O)[C@H](Cc1cnc[nH]1)NC(C)=O)C(=O)N[C@@H](CC(C)C)C(=O)N[C@@H](Cc1cnc[nH]1)C(=O)N[C@@]1(C)CCC/C=C\CCC[C@@](C)(C(=O)N[C@@H](CO)C(N)=O)NC(=O)[C@H](CCC(N)=O)NC(=O)[C@H](CC(C)C)NC(=O)[C@H](CC(C)C)NC1=O (Ac-HKILH[S5]LLQ[S5]S-NH2; staple (Z) 6-10)
- Kd (Estrogen receptor [1]): > 15 µM
- Kd (Estrogen receptor beta): > 15 µM

Structure (SMILES): C=CCCC[C@](C)(NC(=O)[C@H](CCCCN)NC(=O)[C@H](Cc1cnc[nH]1)NC(C)=O)C(=O)N[C@@H](CC(C)C)C(=O)N[C@@H](Cc1cnc[nH]1)C(=O)N[C@@H](CCC(N)=O)C(=O)N[C@@](C)(CCCC=C)C(=O)N[C@@H](CC(C)C)C(=O)N[C@@H](CCC(N)=O)C(=O)N[C@@H](CC(=O)O)C(=O)N[C@@H](CO)C(N)=O (Ac-HK[S5]LHQ[S5]LQDS-NH2)
- IC50 (Estrogen receptor [2]): 1.2 µM

Structure (SMILES): CC(=O)N[C@@H](Cc1cnc[nH]1)C(=O)N[C@@H](CCCCN)C(=O)N[C@@]1(C)CCC/C=C\C[C@@H](C)C[C@@](C)(C(=O)N[C@@H](CC(C)C)C(=O)N[C@@H](CCC(N)=O)C(=O)N[C@@H](CC(=O)O)C(=O)N[C@@H](CO)C(N)=O)NC(=O)[C@H](CCCNC(=N)N)NC(=O)[C@H](Cc2cnc[nH]2)NC(=O)[C@H](CC(C)C)NC1=O (Ac-HK[S5]LHR[αMeNle(4R-Me,6-ylidene)]LQDS-NH2; staple (Z) 3-7)
- IC50 (Estrogen receptor [2]): 1.8 µM

Structure (SMILES): CC(=O)N[C@@H](Cc1cnc[nH]1)C(=O)N[C@@H](CCCCN)C(=O)N[C@@]1(C)C[C@@H](C)C/C=C\CCC[C@@](C)(C(=O)N[C@@H](CC(C)C)C(=O)N[C@@H](CCC(N)=O)C(=O)N[C@@H](CC(=O)O)C(=O)N[C@@H](CO)C(N)=O)NC(=O)[C@H](CCCNC(=N)N)NC(=O)[C@H](Cc2cnc[nH]2)NC(=O)[C@H](CC(C)C)NC1=O (Ac-HK[X3]LHR[S5]LQDS-NH2; staple (Z) 3-7)
- IC50 (Estrogen receptor [2]): 0.089 µM

Structure (SMILES): CC(=O)N[C@@H](Cc1cnc[nH]1)C(=O)N[C@@H](CCCCN)C(=O)N[C@@]1(C)C[C@H](C)C/C=C\CCC[C@@](C)(C(=O)N[C@@H](CC(C)C)C(=O)N[C@@H](CCC(N)=O)C(=O)N[C@@H](CC(=O)O)C(=O)N[C@@H](CO)C(N)=O)NC(=O)[C@H](CCCNC(=N)N)NC(=O)[C@H](Cc2cnc[nH]2)NC(=O)[C@H](CC(C)C)NC1=O (Ac-HK[αMeNle(4R-Me,6-ylidene)]LHR[S5]LQDS-NH2; staple (Z) 3-7)
- IC50 (Estrogen receptor [2]): 0.096 µM

Reference: ChEMBL document CHEMBL4229451, “Recent advances in peptidomimetics antagonists targeting estrogen receptor α-coactivator interaction in cancer therapy” (Bioorg Med Chem Lett, 2018)
